Measured values reported in ChEMBL document CHEMBL4706574, “Preparation, characterization, antioxidant evaluation of new curcumin derivatives and effects of forming HSA-bound nanoparticles on the stability and activity” (Eur J Med Chem, 2020).
Calls of active or inactive are those of the source. The rule behind the calls is not given here.

Key:
PC-12 [1] = assay: Cytoprotective activity against H2O2-induced cell death in […] assessed as cell viability at 0.1 uM incubated for 0.5 hrs followed by H2O2 stimulation and measured after 2 hrs by MTT assay; assay type: functional, cell-based; conditions: time 2.5 hrs
[2] = Cytoprotective activity against H2O2-induced cell death in […] assessed as cell viability at 30 uM incubated for 0.5 hrs followed by H2O2 stimulation and measured after 2 hrs by MTT assay relative to control; assay type: functional; conditions: Rattus norvegicus, time 2.5 hrs, read-out: Activity
PC-12 [3] = assay: Cytoprotective activity against H2O2-induced cell death in […] assessed as cell viability at 30 to 100 uM incubated for 0.5 hrs followed by H2O2 stimulation and measured after 2 hrs by MTT assay; assay type: functional, cell-based; conditions: dose 30-100 µM, time 2.5 hrs
HepG2 = assay: Antiproliferative activity against human HepG2 cells assessed as cell viability at 10 uM incubated for 48 hrs by MTT assay (reference value: 100 %); assay type: functional; conditions: read-out: Activity
HCT-116 = assay: Antiproliferative activity against human HCT-116 cells assessed as cell viability at 10 uM incubated for 48 hrs by MTT assay (reference value: 100 %); assay type: functional; conditions: read-out: Activity
K562 = assay: Antiproliferative activity against human K562 cells assessed as cell viability at 10 uM incubated for 48 hrs by MTT assay (reference value: 100 %); assay type: functional; conditions: read-out: Activity
[4] = Stability of compound in PBS buffer at pH 7.4 incubated for 48 hrs by UV-vis spectrophotometry; assay type: physicochemical; conditions: pH 7.4, 48 h
PC-12 [5] = assay: Cytoprotective activity against H2O2-induced cell death in […] assessed as cell viability at 100 uM incubated for 0.5 hrs followed by H2O2 stimulation and measured after 2 hrs by MTT assay; assay type: functional, cell-based; conditions: Rattus norvegicus, time 2.5 hrs
PC-12 [6] = assay: Cytoprotective activity against H2O2-induced cell death in […] assessed as cell viability at 10 uM incubated for 0.5 hrs followed by H2O2 stimulation and measured after 2 hrs by MTT assay; assay type: functional, cell-based; conditions: time 2.5 hrs

Row | SMILES | viability at 30 µM [2] [%] | Activity (PC-12 [3]; Rattus norvegicus) | Activity (PC-12 [5]) | further results
1 | C=CCc1cc(/C=C/C(O)=C/C(=O)/C=C/c2cc(CC=C(C)C)c(O)c(OC)c2)cc(OC)c1O | 100 | Active |  | Activity (PC-12 [1]): Active
2 | C=CCc1cc(/C=C/c2cc(/C=C/c3cc(CC=C)c(O)c(OC)c3)[nH]n2)cc(OC)c1O |  | Active |  | 
3 | C=CCc1cc(/C=C/C(=O)/C=C(O)/C=C/c2cc(CC=C)c(O)c(OC)c2)cc(OC)c1O | 100 | Active |  | Activity (PC-12 [1]): Active
4 | COc1cc(/C=C/C(=O)/C=C(O)/C=C/c2cc(CC=C(C)C)c(O)c(OC)c2)cc(CC=C(C)C)c1O | 100 | Active | Active | viability at 10 µM (HepG2): 64.3%; viability at 10 µM (HCT-116): 61.1%; viability at 10 µM (K562): 64.3%; Stabilty [4]: Unstable; Activity (PC-12 [1]): Active
5 | C=CCc1cc(/C=C/C(=O)/C=C(O)/C=C/c2ccc(O)c(OC)c2)cc(OC)c1O | 100 | Active | inactive | 
6 | COc1cc(/C=C/C(=O)CC(=O)/C=C/c2ccc(O)c(OC)c2)ccc1O [CURCUMIN] |  | Active |  | viability at 10 µM (HepG2): 58.8%; viability at 10 µM (HCT-116): 10.3%; viability at 10 µM (K562): 65.4%; Stabilty [4]: Unstable
7 | Oc1ccc(/C=C/c2cc(O)cc(O)c2)cc1 |  | Active |  | Activity (PC-12 [6]): inactive
8 | COc1cc(/C=C/C(O)=C/C(=O)/C=C/c2cc(CC=C(C)C)c(O)c(OC)c2)ccc1O | 100 | Active | inactive | 
9 | COc1cc(/C=C/c2cc(/C=C/c3cc(CC=C(C)C)c(O)c(OC)c3)n[nH]2)ccc1O |  | Active |  | 
10 | COc1cc(/C=C/c2cc(/C=C/c3cc(CC=C(C)C)c(O)c(OC)c3)[nH]n2)cc(CC=C(C)C)c1O | 100 | Active | inactive | 
11 | C=CCc1cc(/C=C/c2cc(/C=C/c3cc(CC=C(C)C)c(O)c(OC)c3)n[nH]2)cc(OC)c1O |  | Active |  | 
12 | C=CCc1cc(/C=C/c2cc(/C=C/c3ccc(O)c(OC)c3)[nH]n2)cc(OC)c1O |  | Active |  | 
13 | O=C(O)c1cc(O)c(O)c(O)c1 |  |  |  | Activity (PC-12 [6]): inactive; Activity (PC-12 [3]): Active
